Source: the kinase profiling compilation of Christmann-Franck et al. (2016)

Legend:
Assay in all cases: KINOMEscan competition binding
Conditions in all cases: compound 10.0 µM
[1] = biological target: AURKC (human) (UniProt Q9UQB9)
[2] = biological target: BLK (human) (UniProt P51451)
[3] = biological target: BMPR1A (human) (UniProt P36894)
[4] = biological target: CAMK2D (human) (UniProt Q13557)
[5] = biological target: CAMKK1 (human) (UniProt Q8N5S9)
[6] = biological target: CDK15 (human) (UniProt Q96Q40)
[7] = biological target: CDK7 (human) (UniProt P50613)
[8] = biological target: CSNK1G1 (human) (UniProt Q9HCP0)
[9] = biological target: DAPK1 (human) (UniProt P53355)
[10] = biological target: DCLK2 (human) (UniProt Q8N568)
[11] = biological target: DYRK1A (human) (UniProt Q13627)
[12] = biological target: GSK3B (human) (UniProt P49841)
[13] = biological target: INSR (human) (UniProt P06213)
[14] = biological target: IRAK1 (human) (UniProt P51617)
[15] = biological target: LATS1 (human) (UniProt O95835)
[16] = biological target: LIMK2 (human) (UniProt P53671)
[17] = biological target: MAP2K5 (human) (UniProt Q13163)
[18] = biological target: MAP2K7 (human) (UniProt O14733)
[19] = biological target: MAP3K1 (human) (UniProt Q13233)
[20] = biological target: MAP3K12 (human) (UniProt Q12852)
[21] = biological target: MAP3K2 (human) (UniProt Q9Y2U5)
[22] = biological target: MAP3K7 (human) (UniProt O43318)
[23] = biological target: MAP4K2 (human) (UniProt Q12851)
[24] = biological target: MAST1 (human) (UniProt Q9Y2H9)
[25] = biological target: MYLK3 (human) (UniProt Q32MK0)
[26] = biological target: NIM1 (human) (UniProt Q8IY84)
[27] = biological target: NUAK1 (human) (UniProt O60285)
[28] = test system: PIK3CA (human), P42336 [E542K]
[29] = biological target: PKN3 (M.tuberculosis) (UniProt Q6P5Z2)
[30] = biological target: PRKAA2 (human) (UniProt P54646)
[31] = biological target: PRKG1 (human) (UniProt Q13976)
[32] = biological target: RIOK3 (human) (UniProt O14730)
[33] = biological target: ROS1 (human) (UniProt P08922)
[34] = biological target: STK35 (human) (UniProt Q8TDR2)
[35] = biological target: STK38 (human) (UniProt Q15208)
[36] = biological target: TAOK2 (human) (UniProt Q9UL54)
[37] = biological target: TBK1 (human) (UniProt Q9UHD2)
[38] = biological target: TNK2 (human) (UniProt Q07912)
[39] = biological target: TSSK1B (human) (UniProt Q9BXA7)
[40] = biological target: ULK3 (human) (UniProt Q6PHR2)

Chain of PRKG1 (human) (Q13976 whole entry, looked up): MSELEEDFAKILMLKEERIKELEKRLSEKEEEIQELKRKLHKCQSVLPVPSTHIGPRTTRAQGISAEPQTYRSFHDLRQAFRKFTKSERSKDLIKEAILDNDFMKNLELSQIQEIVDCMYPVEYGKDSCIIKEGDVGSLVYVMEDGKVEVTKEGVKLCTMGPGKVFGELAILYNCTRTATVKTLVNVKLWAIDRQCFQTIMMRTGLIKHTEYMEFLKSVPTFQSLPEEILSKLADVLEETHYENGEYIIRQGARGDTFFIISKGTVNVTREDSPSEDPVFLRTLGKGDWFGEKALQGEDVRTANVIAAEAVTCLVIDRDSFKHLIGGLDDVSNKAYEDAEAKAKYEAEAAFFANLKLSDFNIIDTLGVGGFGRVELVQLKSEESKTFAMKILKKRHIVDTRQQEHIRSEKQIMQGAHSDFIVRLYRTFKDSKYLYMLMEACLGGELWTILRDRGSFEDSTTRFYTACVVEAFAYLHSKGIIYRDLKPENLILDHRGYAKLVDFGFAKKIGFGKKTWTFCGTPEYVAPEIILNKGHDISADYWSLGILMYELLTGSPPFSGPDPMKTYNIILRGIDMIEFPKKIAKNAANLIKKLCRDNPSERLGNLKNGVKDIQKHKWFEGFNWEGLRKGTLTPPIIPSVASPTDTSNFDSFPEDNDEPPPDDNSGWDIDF
Chain of PKN3 (M.tuberculosis) (Q6P5Z2 whole entry, looked up): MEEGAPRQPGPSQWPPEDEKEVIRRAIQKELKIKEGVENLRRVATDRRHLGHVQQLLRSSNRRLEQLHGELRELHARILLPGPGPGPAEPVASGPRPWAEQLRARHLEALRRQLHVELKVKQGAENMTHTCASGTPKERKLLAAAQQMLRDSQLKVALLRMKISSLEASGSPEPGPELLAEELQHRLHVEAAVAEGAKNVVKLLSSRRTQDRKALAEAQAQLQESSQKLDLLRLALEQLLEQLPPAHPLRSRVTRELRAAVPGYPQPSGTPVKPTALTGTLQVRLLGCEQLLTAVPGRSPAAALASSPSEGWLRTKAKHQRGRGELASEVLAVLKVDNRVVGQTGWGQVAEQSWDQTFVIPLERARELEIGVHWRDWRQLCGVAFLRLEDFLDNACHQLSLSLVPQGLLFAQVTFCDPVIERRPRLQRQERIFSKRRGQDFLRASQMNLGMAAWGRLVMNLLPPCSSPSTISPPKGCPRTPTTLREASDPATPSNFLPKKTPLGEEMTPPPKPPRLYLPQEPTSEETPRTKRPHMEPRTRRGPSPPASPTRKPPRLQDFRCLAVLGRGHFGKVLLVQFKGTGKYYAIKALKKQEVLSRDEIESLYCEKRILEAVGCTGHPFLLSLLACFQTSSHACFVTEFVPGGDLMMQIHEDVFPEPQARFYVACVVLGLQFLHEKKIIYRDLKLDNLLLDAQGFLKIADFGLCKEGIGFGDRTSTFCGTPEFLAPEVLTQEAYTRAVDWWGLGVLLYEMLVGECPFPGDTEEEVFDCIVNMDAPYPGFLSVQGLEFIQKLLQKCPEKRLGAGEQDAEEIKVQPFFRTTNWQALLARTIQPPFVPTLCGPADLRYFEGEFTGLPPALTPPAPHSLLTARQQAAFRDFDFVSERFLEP
Chain of GSK3B (human) (P49841 whole entry, looked up): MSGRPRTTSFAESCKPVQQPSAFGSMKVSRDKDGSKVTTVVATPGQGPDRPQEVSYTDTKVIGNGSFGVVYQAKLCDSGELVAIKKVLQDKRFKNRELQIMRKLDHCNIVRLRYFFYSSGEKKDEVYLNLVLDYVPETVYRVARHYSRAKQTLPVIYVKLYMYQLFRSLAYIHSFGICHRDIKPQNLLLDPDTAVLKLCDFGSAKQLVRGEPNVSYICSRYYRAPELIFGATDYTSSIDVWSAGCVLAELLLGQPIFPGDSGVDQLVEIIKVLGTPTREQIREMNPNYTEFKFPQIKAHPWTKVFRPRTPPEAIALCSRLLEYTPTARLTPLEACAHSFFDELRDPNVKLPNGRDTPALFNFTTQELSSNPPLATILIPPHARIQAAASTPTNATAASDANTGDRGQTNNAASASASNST
Chain of MAP3K2 (human) (Q9Y2U5 whole entry, looked up): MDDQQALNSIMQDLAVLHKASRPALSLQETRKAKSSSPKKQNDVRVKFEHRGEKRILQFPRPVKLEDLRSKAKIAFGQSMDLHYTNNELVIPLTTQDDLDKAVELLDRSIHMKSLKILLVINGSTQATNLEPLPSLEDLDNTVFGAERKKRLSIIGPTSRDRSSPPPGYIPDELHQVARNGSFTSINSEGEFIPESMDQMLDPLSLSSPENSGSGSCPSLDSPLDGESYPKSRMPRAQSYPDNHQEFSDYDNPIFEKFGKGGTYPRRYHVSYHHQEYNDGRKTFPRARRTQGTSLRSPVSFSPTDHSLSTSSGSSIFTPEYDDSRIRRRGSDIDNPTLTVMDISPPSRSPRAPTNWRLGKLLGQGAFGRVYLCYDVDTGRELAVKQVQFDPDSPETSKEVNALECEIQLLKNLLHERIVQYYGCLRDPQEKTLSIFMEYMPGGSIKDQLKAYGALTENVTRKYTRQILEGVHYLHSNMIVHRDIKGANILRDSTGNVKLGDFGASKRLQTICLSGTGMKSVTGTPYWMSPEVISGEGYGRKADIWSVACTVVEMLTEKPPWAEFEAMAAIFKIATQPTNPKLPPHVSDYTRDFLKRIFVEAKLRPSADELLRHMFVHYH
Chain of PIK3CA (human), P42336 [E542K] (P42336 whole entry E542K, looked up): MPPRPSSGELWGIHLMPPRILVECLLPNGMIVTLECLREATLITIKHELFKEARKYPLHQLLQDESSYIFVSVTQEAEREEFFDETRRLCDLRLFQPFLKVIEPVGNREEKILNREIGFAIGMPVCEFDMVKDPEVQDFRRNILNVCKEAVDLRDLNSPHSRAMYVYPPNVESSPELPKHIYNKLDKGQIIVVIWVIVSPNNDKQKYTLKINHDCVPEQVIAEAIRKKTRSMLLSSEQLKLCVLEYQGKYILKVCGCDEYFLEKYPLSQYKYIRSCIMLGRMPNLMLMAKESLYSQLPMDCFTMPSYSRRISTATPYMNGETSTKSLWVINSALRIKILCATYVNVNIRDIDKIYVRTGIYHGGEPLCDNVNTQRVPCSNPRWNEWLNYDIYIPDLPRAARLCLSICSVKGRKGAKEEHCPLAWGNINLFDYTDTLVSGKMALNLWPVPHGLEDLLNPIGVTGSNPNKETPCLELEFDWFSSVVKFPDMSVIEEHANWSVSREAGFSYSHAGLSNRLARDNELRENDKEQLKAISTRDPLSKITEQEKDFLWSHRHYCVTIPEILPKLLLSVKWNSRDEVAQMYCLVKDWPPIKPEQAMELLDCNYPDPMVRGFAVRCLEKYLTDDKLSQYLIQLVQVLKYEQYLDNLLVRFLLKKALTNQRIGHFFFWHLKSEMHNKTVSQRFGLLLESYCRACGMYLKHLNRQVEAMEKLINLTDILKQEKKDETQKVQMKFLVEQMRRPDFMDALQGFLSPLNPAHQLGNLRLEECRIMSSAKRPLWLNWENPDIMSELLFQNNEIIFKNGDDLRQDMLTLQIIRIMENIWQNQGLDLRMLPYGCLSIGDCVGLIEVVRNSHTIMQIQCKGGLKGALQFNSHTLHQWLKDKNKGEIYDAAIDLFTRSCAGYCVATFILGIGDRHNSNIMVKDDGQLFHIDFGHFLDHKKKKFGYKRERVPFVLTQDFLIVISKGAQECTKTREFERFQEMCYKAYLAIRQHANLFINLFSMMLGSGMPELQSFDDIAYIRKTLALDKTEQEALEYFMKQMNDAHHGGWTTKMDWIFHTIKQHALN
Chain of CSNK1G1 (human) (Q9HCP0 whole entry, looked up): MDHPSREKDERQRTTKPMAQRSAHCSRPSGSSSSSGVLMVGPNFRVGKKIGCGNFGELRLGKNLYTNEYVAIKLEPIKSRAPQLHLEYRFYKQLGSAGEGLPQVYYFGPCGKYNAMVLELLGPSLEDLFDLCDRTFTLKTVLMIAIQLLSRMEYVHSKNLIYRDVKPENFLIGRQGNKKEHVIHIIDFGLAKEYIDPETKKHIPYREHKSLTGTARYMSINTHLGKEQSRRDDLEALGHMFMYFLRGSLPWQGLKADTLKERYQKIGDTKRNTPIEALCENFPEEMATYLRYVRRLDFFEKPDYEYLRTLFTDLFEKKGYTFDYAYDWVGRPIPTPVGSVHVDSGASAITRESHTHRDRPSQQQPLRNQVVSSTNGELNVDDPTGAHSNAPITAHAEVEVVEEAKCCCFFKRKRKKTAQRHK
Chain of TBK1 (human) (Q9UHD2 whole entry, looked up): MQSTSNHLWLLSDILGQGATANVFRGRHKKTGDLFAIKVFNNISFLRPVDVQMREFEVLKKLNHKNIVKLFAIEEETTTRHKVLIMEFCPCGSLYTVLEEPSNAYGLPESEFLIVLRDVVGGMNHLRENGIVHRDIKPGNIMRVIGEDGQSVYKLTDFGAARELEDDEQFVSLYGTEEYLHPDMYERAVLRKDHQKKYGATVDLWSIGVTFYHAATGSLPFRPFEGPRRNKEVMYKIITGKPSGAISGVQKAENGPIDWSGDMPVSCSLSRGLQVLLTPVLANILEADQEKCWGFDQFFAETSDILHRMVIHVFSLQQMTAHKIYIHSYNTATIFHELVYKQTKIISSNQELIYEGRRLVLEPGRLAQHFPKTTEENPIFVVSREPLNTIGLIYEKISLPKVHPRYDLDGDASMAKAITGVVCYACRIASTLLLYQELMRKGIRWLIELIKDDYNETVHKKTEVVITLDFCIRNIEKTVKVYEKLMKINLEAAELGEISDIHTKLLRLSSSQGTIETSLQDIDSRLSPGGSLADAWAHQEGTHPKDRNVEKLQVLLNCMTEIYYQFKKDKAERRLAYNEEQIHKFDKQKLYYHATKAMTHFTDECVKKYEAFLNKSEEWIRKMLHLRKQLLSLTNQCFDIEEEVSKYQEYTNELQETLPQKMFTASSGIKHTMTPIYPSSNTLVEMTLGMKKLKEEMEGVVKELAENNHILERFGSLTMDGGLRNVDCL

Structure (SMILES) | kinase still bound, per cent of control [1] | kinase still bound, per cent of control [2] | kinase still bound, per cent of control [3] | kinase still bound, per cent of control [4] | kinase still bound, per cent of control [5] | kinase still bound, per cent of control [6] | kinase still bound, per cent of control [7] | kinase still bound, per cent of control [8] | kinase still bound, per cent of control [9] | kinase still bound, per cent of control [10] | kinase still bound, per cent of control [11] | kinase still bound, per cent of control [12] | kinase still bound, per cent of control [14] | kinase still bound, per cent of control [15] | kinase still bound, per cent of control [16] | kinase still bound, per cent of control [17] | kinase still bound, per cent of control [18] | kinase still bound, per cent of control [19] | kinase still bound, per cent of control [20] | kinase still bound, per cent of control [21] | further results
N#Cc1cc(-c2ccnc(Nc3ccc(-n4cnc(-c5cccnc5)n4)cc3)n2)cc(N2CCOCC2)c1 | 40% | 86% | 28% | 24% | 48% | 55% | 1.2% | 92% | 60% | 100% | 3.1% | 3.1% | 9.3% | 100% | 60% | 8.6% | 100% | 100% | 63% | 31% | kinase still bound, per cent of control [13]: 78%; kinase still bound, per cent of control [22]: 15%; kinase still bound, per cent of control [23]: 10%; kinase still bound, per cent of control [24]: 100%; kinase still bound, per cent of control [25]: 100%; kinase still bound, per cent of control [26]: 58%; kinase still bound, per cent of control [27]: 100%; kinase still bound, per cent of control [28]: 100%; kinase still bound, per cent of control [29]: 6.3%; kinase still bound, per cent of control [30]: 94%; kinase still bound, per cent of control [31]: 100%; kinase still bound, per cent of control [32]: 3.2%; kinase still bound, per cent of control [33]: 17%; kinase still bound, per cent of control [34]: 48%; kinase still bound, per cent of control [35]: 92%; kinase still bound, per cent of control [36]: 37%; kinase still bound, per cent of control [37]: 35%; kinase still bound, per cent of control [38]: 61%; kinase still bound, per cent of control [39]: 100%; kinase still bound, per cent of control [40]: 6%
CNC(=O)Nc1ccc(-c2nc(N3CC4CCC(C3)O4)c3cnn(C4CCC5(CC4)OCCO5)c3n2)cc1 | 86% | 96% | 93% | 100% | 100% | 100% | 88% | 54% | 12% | 97% | 100% | 69% | 100% | 95% | 88% | 93% | 100% | 58% | 93% | 95% | kinase still bound, per cent of control [13]: 84%; kinase still bound, per cent of control [22]: 98%; kinase still bound, per cent of control [23]: 100%; kinase still bound, per cent of control [24]: 95%; kinase still bound, per cent of control [25]: 100%; kinase still bound, per cent of control [26]: 100%; kinase still bound, per cent of control [27]: 82%; kinase still bound, per cent of control [28]: 14%; kinase still bound, per cent of control [29]: 94%; kinase still bound, per cent of control [30]: 93%; kinase still bound, per cent of control [31]: 100%; kinase still bound, per cent of control [32]: 100%; kinase still bound, per cent of control [33]: 81%; kinase still bound, per cent of control [34]: 95%; kinase still bound, per cent of control [35]: 100%; kinase still bound, per cent of control [36]: 100%; kinase still bound, per cent of control [37]: 82%; kinase still bound, per cent of control [38]: 84%; kinase still bound, per cent of control [39]: 100%; kinase still bound, per cent of control [40]: 92%
CCc1nc(-c2cccc(C)c2)c(-c2ccnc(NC(=O)c3ccccc3)c2)s1 | 90% | 17% | 14% | 100% | 100% | 95% | 100% | 28% | 72% | 98% | 69% | 60% | 99% | 100% | 94% | 5.2% | 100% | 90% | 100% | 100% | kinase still bound, per cent of control [22]: 64%; kinase still bound, per cent of control [23]: 93%; kinase still bound, per cent of control [24]: 100%; kinase still bound, per cent of control [25]: 93%; kinase still bound, per cent of control [26]: 100%; kinase still bound, per cent of control [27]: 100%; kinase still bound, per cent of control [28]: 100%; kinase still bound, per cent of control [29]: 100%; kinase still bound, per cent of control [30]: 100%; kinase still bound, per cent of control [31]: 100%; kinase still bound, per cent of control [32]: 100%; kinase still bound, per cent of control [33]: 69%; kinase still bound, per cent of control [34]: 76%; kinase still bound, per cent of control [35]: 100%; kinase still bound, per cent of control [36]: 86%; kinase still bound, per cent of control [37]: 100%; kinase still bound, per cent of control [38]: 78%; kinase still bound, per cent of control [39]: 87%; kinase still bound, per cent of control [40]: 88%
